The values below come from EP4467141A1, “PYRAZOLO-QUINOLINES AS SELECTIVE INHIBITORS OF GENOTOXIC STRESS-INDUCED IKK/NF- KB PATHWAYS FOR CANCER THERAPY” (Max-Delbrück-Centrum für Molekulare Medizin in der …, priority 2023, dated 2024).

Experiment [1] has as its system NF-κB subunit p65 phosphorylation (S536). The experiment in a line: Western blot of p65 phosphorylation (S536) after TNFα in U2-OS cells. In kind it is cell-based. The note with it: 1-hour pre-treatment, TNFα 10 ng/ml, 20 min. As to the method: Fig.1: Identification of inhibitors specific for DNA damage-induced NF-κB activity. (A) Flowchart representing the high-throughput chemical library screening. A screen/counter-screen strategy was used by stimulating NF-κB in U2-OS cells with etoposide (50 µM for 90 min) and hits were counter-screened with TNFα (10 ng/ml for 20 min). Cells were pre-treated with compounds (10 µM) for 1 hour before stimulation, fixed, and percent p65 nuclear translocation measured by fluorescence microscopy. IC50 values were used for final selection. (B) Comparison of mean p65 nuclear translocation following either etoposide or TNFa stimulation after treatment with each counter-screened hit compound. Values were normalized to etoposide or TNFα positive controls. Specific inhibitors (red) of DNA damage-induced NF-κB signaling were defined by setting cut-off criteria (black line). […] (C) IC50 determination for MW01 (left) and MW05 (right) of p65 nuclear translocation, following either etoposide or TNFα treatment. […] IC50 noted with a dotted line. […] (E) Western blot analysis (top) and quantification (bottom) of NF-κB subunit p65 phosphorylation (S536) following 1-hour pre-treatment with DMSO, MW01 (10 µM), or MW05 (10 µM), in unstimulated, after 90 min irradiation (IR, 20 Gy), or after 20 min TNFα (10 ng/mL) conditions in U2- OS cells. […]
NF-κB was stimulated by DNA damage through either 20 Gy irradiation (IR) and analyzed after 90 minutes or by 10 ng/ml TNFα and analyzed after 20 minutes unless otherwise noted. […]
Cells were collected by scraping and lysed in Baeuerle lysis buffer supplemented with Protease (Thermo Fisher Scientific, 78429) and Phosphatase (Thermo Fisher Scientific, 78420) inhibitors after the appropriate treatment and time point. Proteins were quantified by Bradford assay (Bio-Rad, 5000006) and 20-50 µg of extracted proteins were loaded on 4-20% Protein Gel (Bio-Rad, 4568096) and then transferred onto a PVDF membrane (Bio-Rad, 1620177) using Tris-Glycine buffer with 20% of methanol. […]
Background: Immunoblotting shows a protein as a band on a membrane.

Experiment [2] concerns the target T1, FLT4 (VEGFR3) (Homo sapiens, UniProt P35916).
T1 construct: purchased Thermo Fisher Scientific
The experiment in a line: Kinase panel study. In kind it is biochemical. Conditions: read-out: Percentage of inhibition; for inhibition at 1 µM: 1000nM; for inhibition at 10 µM: 10000nM. A digest of the protocol: (§1)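 Lead compounds and derivatives were profiled by ZLyte or Adapta in vitro kinase assays. Each value reports inhibition percentage at one of two concentrations, 1 µM or 10 µM.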

Experiment [3] deals with T2, ITK (Homo sapiens, UniProt Q08881).
T2 construct: purchased Thermo Fisher Scientific
T2 sequence (Q08881 1-620): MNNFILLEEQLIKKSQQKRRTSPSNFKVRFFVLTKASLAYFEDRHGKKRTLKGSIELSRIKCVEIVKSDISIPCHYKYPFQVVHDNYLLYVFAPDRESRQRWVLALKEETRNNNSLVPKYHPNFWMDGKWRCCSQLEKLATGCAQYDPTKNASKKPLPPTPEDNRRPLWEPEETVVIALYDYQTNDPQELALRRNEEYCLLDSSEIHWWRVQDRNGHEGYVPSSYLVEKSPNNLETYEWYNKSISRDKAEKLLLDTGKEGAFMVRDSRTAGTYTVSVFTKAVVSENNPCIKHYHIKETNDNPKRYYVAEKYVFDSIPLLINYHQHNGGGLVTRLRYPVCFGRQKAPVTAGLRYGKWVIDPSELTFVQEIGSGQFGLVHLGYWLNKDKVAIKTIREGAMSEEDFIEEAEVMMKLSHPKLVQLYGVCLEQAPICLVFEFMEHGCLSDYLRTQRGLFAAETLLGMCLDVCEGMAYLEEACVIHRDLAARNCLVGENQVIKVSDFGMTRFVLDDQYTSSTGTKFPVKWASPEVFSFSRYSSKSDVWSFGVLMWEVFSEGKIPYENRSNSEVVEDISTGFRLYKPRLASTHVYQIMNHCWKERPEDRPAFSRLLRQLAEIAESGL
The experiment in a line: Kinase panel study. Type of experiment: biochemical. Conditions: read-out: Percentage of inhibition; for inhibition at 1 µM: 1000nM; for inhibition at 10 µM: 10000nM. A digest of the protocol: as §1

In experiment [4] the target is T3, MET (cMet) Y1235D (Homo sapiens, UniProt P08581, Y1235D).
T3 construct: purchased Thermo Fisher Scientific
The experiment can be described thus: Kinase panel study. Conditions: read-out: Percentage of inhibition; for inhibition at 1 µM: 1000nM; for inhibition at 10 µM: 10000nM. Type of experiment: biochemical. A digest of the protocol:
as §1

Experiment [5] concerns NF-κB subunit p65 phosphorylation (S536). The experiment can be described thus: Western blot of p65 phosphorylation (S536) after DNA damage (irradiation or etoposide) in U2-OS cells. Type of experiment: cell-based. The note with it: 10 µM plus etoposide 50 µM, 24 hours.

T3 sequence (P08581 25-1390 Y1235D): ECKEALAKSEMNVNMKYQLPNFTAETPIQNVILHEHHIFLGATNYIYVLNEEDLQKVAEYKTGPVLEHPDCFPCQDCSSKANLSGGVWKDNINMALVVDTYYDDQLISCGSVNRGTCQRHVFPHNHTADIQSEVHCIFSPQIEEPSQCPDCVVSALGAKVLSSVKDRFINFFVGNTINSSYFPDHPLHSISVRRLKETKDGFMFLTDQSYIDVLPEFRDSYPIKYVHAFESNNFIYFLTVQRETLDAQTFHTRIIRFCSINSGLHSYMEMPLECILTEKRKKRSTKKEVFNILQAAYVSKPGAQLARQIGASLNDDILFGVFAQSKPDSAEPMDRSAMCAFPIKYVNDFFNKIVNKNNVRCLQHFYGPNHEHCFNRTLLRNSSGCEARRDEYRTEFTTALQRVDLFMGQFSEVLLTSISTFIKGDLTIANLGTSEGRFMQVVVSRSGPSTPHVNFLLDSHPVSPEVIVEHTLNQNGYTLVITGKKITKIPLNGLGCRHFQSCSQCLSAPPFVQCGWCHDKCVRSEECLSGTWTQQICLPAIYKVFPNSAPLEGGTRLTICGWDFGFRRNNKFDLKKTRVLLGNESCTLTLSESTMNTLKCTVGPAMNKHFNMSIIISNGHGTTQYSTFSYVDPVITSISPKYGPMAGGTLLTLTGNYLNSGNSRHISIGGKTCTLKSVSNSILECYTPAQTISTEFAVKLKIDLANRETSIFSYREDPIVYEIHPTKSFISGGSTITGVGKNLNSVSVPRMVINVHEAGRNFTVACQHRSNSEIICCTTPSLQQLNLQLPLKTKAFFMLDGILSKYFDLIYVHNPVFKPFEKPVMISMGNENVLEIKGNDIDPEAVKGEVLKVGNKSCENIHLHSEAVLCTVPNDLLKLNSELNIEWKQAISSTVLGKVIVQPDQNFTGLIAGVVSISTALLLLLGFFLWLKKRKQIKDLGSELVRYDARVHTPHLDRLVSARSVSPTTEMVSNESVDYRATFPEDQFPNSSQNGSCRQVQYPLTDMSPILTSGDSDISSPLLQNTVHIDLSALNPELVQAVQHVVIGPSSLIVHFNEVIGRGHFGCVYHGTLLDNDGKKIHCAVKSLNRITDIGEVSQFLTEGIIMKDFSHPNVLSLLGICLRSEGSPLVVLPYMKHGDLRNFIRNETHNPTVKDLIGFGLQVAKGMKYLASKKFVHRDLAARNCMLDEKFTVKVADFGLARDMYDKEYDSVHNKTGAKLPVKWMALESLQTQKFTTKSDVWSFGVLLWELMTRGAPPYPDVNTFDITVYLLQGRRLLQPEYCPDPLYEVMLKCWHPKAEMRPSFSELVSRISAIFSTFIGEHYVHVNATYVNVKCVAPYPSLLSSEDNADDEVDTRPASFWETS
T1 sequence (P35916 25-1363): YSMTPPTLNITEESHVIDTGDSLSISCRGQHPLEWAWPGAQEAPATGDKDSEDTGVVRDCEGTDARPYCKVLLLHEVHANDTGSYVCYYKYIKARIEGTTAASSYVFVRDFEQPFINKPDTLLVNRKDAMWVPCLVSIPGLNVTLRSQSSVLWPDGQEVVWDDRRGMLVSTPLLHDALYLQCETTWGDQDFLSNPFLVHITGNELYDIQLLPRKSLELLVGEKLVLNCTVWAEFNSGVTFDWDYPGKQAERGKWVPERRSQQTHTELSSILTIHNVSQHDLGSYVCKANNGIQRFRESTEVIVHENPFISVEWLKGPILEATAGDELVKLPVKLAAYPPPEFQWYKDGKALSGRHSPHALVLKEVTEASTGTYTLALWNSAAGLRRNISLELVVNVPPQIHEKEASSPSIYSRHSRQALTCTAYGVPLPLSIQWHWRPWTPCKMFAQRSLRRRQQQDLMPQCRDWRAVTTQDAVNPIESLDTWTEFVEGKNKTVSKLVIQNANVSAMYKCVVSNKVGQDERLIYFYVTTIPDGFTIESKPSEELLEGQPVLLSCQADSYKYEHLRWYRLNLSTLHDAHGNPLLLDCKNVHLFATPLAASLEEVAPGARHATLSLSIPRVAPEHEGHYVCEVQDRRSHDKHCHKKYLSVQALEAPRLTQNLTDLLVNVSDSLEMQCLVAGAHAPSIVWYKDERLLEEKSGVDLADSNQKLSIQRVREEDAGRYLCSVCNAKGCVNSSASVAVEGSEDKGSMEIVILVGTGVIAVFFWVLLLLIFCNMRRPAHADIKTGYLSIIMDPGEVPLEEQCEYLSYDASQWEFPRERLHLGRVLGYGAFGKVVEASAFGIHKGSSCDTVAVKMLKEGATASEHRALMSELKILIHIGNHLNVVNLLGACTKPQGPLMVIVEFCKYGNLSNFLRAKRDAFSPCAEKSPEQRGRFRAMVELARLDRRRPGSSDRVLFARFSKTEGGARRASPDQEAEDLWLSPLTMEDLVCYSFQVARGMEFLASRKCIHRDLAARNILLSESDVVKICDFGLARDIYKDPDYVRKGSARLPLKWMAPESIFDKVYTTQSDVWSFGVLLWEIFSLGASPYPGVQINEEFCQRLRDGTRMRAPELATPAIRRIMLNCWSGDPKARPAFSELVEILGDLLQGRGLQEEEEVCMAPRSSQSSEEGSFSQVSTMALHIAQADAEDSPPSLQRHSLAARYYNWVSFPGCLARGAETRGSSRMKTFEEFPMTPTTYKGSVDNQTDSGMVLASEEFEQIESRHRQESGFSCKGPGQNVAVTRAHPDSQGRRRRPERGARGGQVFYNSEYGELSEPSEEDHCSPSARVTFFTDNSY

For `COc1ccc2c(c1OC)c(=O)n1c3ccc(O)cc3c3ccnc2c31` [MW01, 5-Hydroxy-10,11-dimethoxy-9H-benzo[c]indolo[3,2,1-ij][1,5]naphthyridin-9-one], the “phosphorylation of p65 at serine 536, TNFα-stimulated” value in experiment [1] is recorded as “untouched”. The figures for the inhibition at 1 µM in experiment [2], in experiment [3] and in experiment [4] were 13%, 0% and -2%, respectively. The inhibition at 10 µM is 31% in experiment [2], -2% in experiment [3] and 4% in experiment [4]. Further, the “etoposide-stimulated p65 phosphorylation” value in experiment [5] is recorded as “abrogated”.
Regarding `COc1ccc2cc3c(N)nn(C(=O)c4cccc(N(C)C)c4)c3nc2c1` [MW05, (3-Amino-7-methoxypyrazolo[3,4-b]quinolin-1-yl)-[3-(dimethylamino)phenyl]methanone], the “phosphorylation of p65 at serine 536, TNFα-stimulated” value in experiment [1] is given as “untouched”. Also, the inhibition at 1 µM in experiment [2] is 7%; in experiment [3], -10%; in experiment [4] it was 1%. In addition, the inhibition at 10 µM in experiment [2] is -3%; in experiment [3], -6%; in experiment [4] it was -44%. Moreover, the “etoposide-stimulated p65 phosphorylation” value in experiment [5] was “abrogated”.

Usually inhibition stands for the relative decrease from the control value, in per cent.
